Test results from the supplement of paper PMC10307832.

compound: CN(C)C(=N)NC(=N)N [Metformin] + O=C(c1cc(Cc2n[nH]c(=O)c3ccccc23)ccc1F)N1CCN(C(=O)C2CC2)CC1 [Olaparib] (partner 8 µM); experiment: relative viability (nuclei count vs DMSO), 5 days (fraction); higher = more cells survive; details: first compound 100 µM
In short: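 For relative viability, nuclei counts in treated wells were divided by those in vehicle wells. Lung cancer cell lines had been pin-tool dosed in 1536-well plates the day after seeding and cultured for 5 days, then fixed and stained in one step (final 0.05% Triton X-100, 1% formaldehyde, 1 ug/ml Hoechst) and imaged at 4×. Doses were one drug alone or a fixed anchor-drug dose plus five library-drug doses (not always all listed) in √10 steps, and values are duplicate-plate medians.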

Cell Line | relative viability
NCI-H1395 | 0.455
NCI-H1437 | 0.593
NCI-H1651 | 0.144
NCI-H1666 | 0.834
NCI-H1734 | 0.584
NCI-H1755 | 0.79
NCI-H1792 | 0.498
NCI-H1793 | 0.813
NCI-H1915 | 0.228
NCI-H1944 | 0.479
NCI-H1975 | 0.874
NCI-H1993 | 1.12
NCI-H2085 | 0.596
NCI-H2087 | 0.414
NCI-H2126 | 0.911
NCI-H2170 | 0.536
NCI-H2347 | 0.376

same assay, conditions: first compound 316.23 µM

Cell Line | relative viability
LCLC-97TM1 | 0.249
LCLC-103H | 0.737
LK-2 | 0.734
LOU-NH91 | 0.883
LU99A | 0.232
LXF-289 | 0.917
NCI-H23 | 0.26
NCI-H322M | 0.672
NCI-H358 | 0.412
NCI-H441 | 0.356
NCI-H596 | 0.74
NCI-H647 | 0.44
NCI-H650 | 0.316
NCI-H838 | 0.596
NCI-H1355 | 0.679
NCI-H1395 | 0.42

Cell Line | relative viability
NCI-H1437 | 0.595
NCI-H1651 | 0.16
NCI-H1666 | 0.726
NCI-H1734 | 0.501
NCI-H1755 | 0.716
NCI-H1792 | 0.358
NCI-H1793 | 0.781
NCI-H1915 | 0.222
NCI-H1944 | 0.397
NCI-H1975 | 0.849
NCI-H1993 | 0.882
NCI-H2085 | 0.591
NCI-H2087 | 0.426
NCI-H2126 | 0.833
NCI-H2170 | 0.487
NCI-H2347 | 0.465

same assay, conditions: first compound 1000 µM

Cell Line | relative viability
LCLC-97TM1 | 0.414
LCLC-103H | 0.777
LK-2 | 0.873
LOU-NH91 | 0.845
LU99A | 0.241
LXF-289 | 0.93
NCI-H23 | 0.293
NCI-H322M | 0.654
NCI-H358 | 0.424
NCI-H441 | 0.374
NCI-H596 | 0.734
NCI-H647 | 0.375
NCI-H650 | 0.368
NCI-H727 | 0.577
NCI-H838 | 0.696
NCI-H1355 | 0.757
NCI-H1395 | 0.417

Cell Line | relative viability
NCI-H1437 | 0.576
NCI-H1651 | 0.146
NCI-H1666 | 0.764
NCI-H1734 | 0.616
NCI-H1755 | 0.829
NCI-H1792 | 0.402
NCI-H1793 | 0.901
NCI-H1915 | 0.244
NCI-H1944 | 0.471
NCI-H1975 | 0.955
NCI-H1993 | 0.955
NCI-H2085 | 0.654
NCI-H2087 | 0.473
NCI-H2126 | 0.856
NCI-H2170 | 0.491
NCI-H2347 | 0.512
